Measurements published in ChEMBL document CHEMBL1201862, “PubChem BioAssay data set” (2004).
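Results reflect a 48-hour exposure of cells in 96-well plates to compound at five concentrations. GI50: concentration for 50% inhibition of growth.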 Active and inactive are the calls of the source. Cut-off read from the data, not from the text of the source: active = GI50 up to about 1.1 µM and inactive = higher.

Columns and labels:
Test in all cases: NCI tumour cell line growth inhibition, 48 h
U-251 = system: U-251
SW-620 = system: SW-620
T47D = system: T47D
KM12 = system: KM12
NCI-H522 = system: NCI-H522
HOP-62 = system: HOP-62
NCI-H23 = system: NCI-H23
UACC-257 = system: UACC-257
RPMI-8226 = system: RPMI-8226
CCRF-CEM = system: CCRF-CEM
SK-OV-3 = system: SK-OV-3
MDA-N = system: MDA-N
NCI/ADR-RES = system: NCI/ADR-RES
UO-31 = system: UO-31
Malme-3M = system: Malme-3M
786-0 = system: 786-0
SF-539 = system: SF-539
MDA-MB-435 = system: MDA-MB-435
SK-MEL-2 = system: SK-MEL-2

Measured: GI50

Cc1nc2[nH]ccn2c(=O)c1CCCl
inactive: U-251 20.9 µM | SW-620 17.3 µM | T47D 91 µM | KM12 20.4 µM | NCI-H522 20.7 µM | HOP-62 23.6 µM | NCI-H23 18.3 µM | UACC-257 94.2 µM | RPMI-8226 28 µM | CCRF-CEM 18 µM | SK-OV-3 26.5 µM | MDA-N 21.9 µM | NCI/ADR-RES 26.5 µM | UO-31 33 µM | Malme-3M 25.6 µM | 786-0 25.5 µM | SF-539 17.1 µM | MDA-MB-435 > 10 µM

C=C(C)[C@H]1C=C[C@@H](OC(C)=O)[C@@]2(COC(C)=O)[C@H](OC(=O)CCC)[C@H]3[C@@H](OC(C)=O)[C@@H](C)C[C@]3(O)C(=O)[C@@](C)(OC(C)=O)[C@H]12
inactive: U-251 33.9 µM | SW-620 55 µM | T47D 27 µM | KM12 39.9 µM | NCI-H522 56 µM | NCI-H23 39.3 µM | UACC-257 39.4 µM | RPMI-8226 30.3 µM | CCRF-CEM 42.4 µM | SK-MEL-2 87.3 µM | NCI/ADR-RES 42.5 µM | UO-31 33.4 µM | Malme-3M 45.3 µM | 786-0 39.7 µM | MDA-MB-435 15.3 µM

Cc1ccc(C2(c3ccc(C)c(O)c3C)CCN(C)CC2)c(C)c1O
inactive: U-251 39.4 µM | SW-620 88.1 µM | T47D 64.6 µM | KM12 46.5 µM | NCI-H522 > 100 µM | HOP-62 51.2 µM | NCI-H23 > 100 µM | UACC-257 15.8 µM | RPMI-8226 > 100 µM | CCRF-CEM 60.1 µM | SK-MEL-2 26.9 µM | MDA-N 58.5 µM | NCI/ADR-RES > 100 µM | UO-31 > 100 µM | Malme-3M 52.7 µM | 786-0 51.2 µM | MDA-MB-435 92.9 µM

COc1cc(CNc2nc3cc(C(F)(F)F)ccc3nc2C)cc(OC)c1OC
inactive: U-251 15.3 µM | SW-620 17.1 µM | T47D 17.9 µM | KM12 15.9 µM | NCI-H522 18.3 µM | HOP-62 24.3 µM | NCI-H23 18.9 µM | UACC-257 16.6 µM | RPMI-8226 11.7 µM | CCRF-CEM 20.3 µM | MDA-N 15.8 µM | NCI/ADR-RES > 10 µM | UO-31 17.7 µM | Malme-3M 17.5 µM | 786-0 > 10 µM | SF-539 21.6 µM | MDA-MB-435 19.5 µM

C=CCNC(=S)NNC(=O)c1c(C)nc2sccn12
inactive: U-251 > 100 µM | SW-620 > 100 µM | KM12 > 100 µM | NCI-H522 > 100 µM | HOP-62 > 100 µM | NCI-H23 > 100 µM | UACC-257 > 100 µM | CCRF-CEM > 100 µM | SK-OV-3 > 100 µM | SK-MEL-2 > 100 µM | Malme-3M > 100 µM | 786-0 > 100 µM | SF-539 > 100 µM

Cc1ccc(OCCn2cc(Nc3ccccc3)c(=O)n(CCOc3ccc(C)cc3)c2=O)cc1
inactive: U-251 51.6 µM | SW-620 > 100 µM | T47D > 100 µM | KM12 > 100 µM | NCI-H522 97.7 µM | NCI-H23 > 100 µM | UACC-257 > 100 µM | RPMI-8226 > 100 µM | CCRF-CEM > 100 µM | SK-MEL-2 > 100 µM | MDA-N > 100 µM | NCI/ADR-RES > 100 µM | UO-31 > 100 µM | Malme-3M 80 µM | 786-0 48 µM | SF-539 > 100 µM | MDA-MB-435 > 100 µM

CC1=N[C@](C)(C2CC3C=CC2C3=O)COC1=O (stereo not given in full)
inactive: U-251 > 100 µM | SW-620 > 100 µM | T47D > 100 µM | KM12 > 100 µM | NCI-H522 > 100 µM | HOP-62 > 100 µM | NCI-H23 > 100 µM | UACC-257 > 100 µM | CCRF-CEM > 100 µM | SK-OV-3 > 100 µM | MDA-N > 100 µM | UO-31 > 100 µM | Malme-3M > 100 µM | 786-0 > 100 µM | SF-539 > 100 µM | MDA-MB-435 > 100 µM

CC(=O)Nc1ccc(NC(=O)CC(=O)Nc2ccc(NC(C)=O)cc2)cc1
inactive: U-251 32.1 µM | SW-620 > 100 µM | T47D 32 µM | KM12 > 100 µM | NCI-H522 > 100 µM | NCI-H23 > 100 µM | UACC-257 > 100 µM | RPMI-8226 > 100 µM | CCRF-CEM > 100 µM | SK-OV-3 20.2 µM | MDA-N > 100 µM | NCI/ADR-RES > 100 µM | UO-31 > 100 µM | Malme-3M > 100 µM | 786-0 > 100 µM | SF-539 > 100 µM | MDA-MB-435 > 100 µM

CCC(C(=O)C(=O)OC)P1(=O)OC(C)(C)CN1C(C)(C)C (stereo not given)
inactive: U-251 > 100 µM | SW-620 > 100 µM | T47D > 100 µM | KM12 > 100 µM | HOP-62 > 100 µM | NCI-H23 > 100 µM | UACC-257 > 100 µM | RPMI-8226 > 100 µM | SK-OV-3 > 100 µM | SK-MEL-2 > 100 µM | NCI/ADR-RES > 100 µM | UO-31 > 100 µM | Malme-3M > 100 µM | 786-0 > 100 µM | SF-539 > 100 µM | MDA-MB-435 > 100 µM

Cc1cc2c(C)nn(Cc3ccccc3Cl)c2c(C#N)c1C
inactive: U-251 > 100 µM | SW-620 > 100 µM | HOP-62 > 100 µM | NCI-H23 > 100 µM | UACC-257 > 100 µM | RPMI-8226 > 100 µM | CCRF-CEM > 100 µM | SK-OV-3 > 100 µM | SK-MEL-2 > 100 µM | UO-31 > 100 µM | Malme-3M > 100 µM | 786-0 > 100 µM | SF-539 > 100 µM

CCOC1=C2N=C(C(CC)c3ccccc3F)N=C2C(=O)c2ccccc21 (stereo not given)
inactive: U-251 8.45 µM | SW-620 > 100 µM | KM12 > 100 µM | NCI-H522 > 100 µM | HOP-62 > 100 µM | NCI-H23 > 100 µM | UACC-257 > 100 µM | RPMI-8226 > 100 µM | CCRF-CEM > 100 µM | SK-MEL-2 > 100 µM | UO-31 > 100 µM | Malme-3M > 100 µM | 786-0 > 100 µM | SF-539 > 100 µM

Nc1ncc(Sc2ccccc2C(=O)O)s1
inactive: U-251 > 100 µM | SW-620 > 100 µM | T47D > 100 µM | KM12 > 100 µM | HOP-62 > 100 µM | NCI-H23 > 100 µM | UACC-257 > 100 µM | RPMI-8226 > 100 µM | CCRF-CEM > 100 µM | SK-MEL-2 > 100 µM | MDA-N > 100 µM | NCI/ADR-RES > 100 µM | UO-31 > 100 µM | 786-0 > 100 µM | SF-539 > 100 µM | MDA-MB-435 > 100 µM

C=CCCCN1CCCCC1=S
inactive: U-251 > 100 µM | SW-620 > 100 µM | KM12 > 100 µM | NCI-H522 > 100 µM | HOP-62 > 100 µM | NCI-H23 > 100 µM | UACC-257 > 100 µM | RPMI-8226 > 100 µM | CCRF-CEM > 100 µM | SK-OV-3 63.4 µM | SK-MEL-2 > 100 µM | UO-31 > 100 µM | Malme-3M > 100 µM | 786-0 > 100 µM | SF-539 > 100 µM

CC(Cc1ccc(O)cc1)NCC(O)c1ccc(O)c(O)c1 (stereo not given)
inactive: U-251 > 100 µM | SW-620 > 100 µM | T47D > 100 µM | KM12 > 100 µM | NCI-H522 > 100 µM | HOP-62 > 100 µM | NCI-H23 > 100 µM | UACC-257 > 100 µM | RPMI-8226 > 100 µM | CCRF-CEM > 100 µM | SK-OV-3 > 100 µM | SK-MEL-2 > 100 µM | NCI/ADR-RES > 100 µM | UO-31 > 100 µM | Malme-3M > 100 µM | 786-0 > 100 µM | SF-539 > 100 µM | MDA-MB-435 > 100 µM

O=[N+]([O-])c1cccnc1NCC1(CO)CCCC1
inactive: U-251 16.9 µM | SW-620 25.7 µM | NCI-H522 21.7 µM | HOP-62 33 µM | NCI-H23 32.6 µM | UACC-257 20.6 µM | RPMI-8226 20.2 µM | CCRF-CEM 29.4 µM | MDA-N 21.4 µM | NCI/ADR-RES 20 µM | Malme-3M 20.7 µM | 786-0 26.7 µM | SF-539 21.6 µM | MDA-MB-435 22.4 µM

Cc1nc(O)nc(N/N=C/c2c3ccccc3c(Cl)c3ccccc23)c1C(=O)Nc1ccc(Cl)cc1
inactive: U-251 37.9 µM | SW-620 52.6 µM | T47D > 100 µM | NCI-H522 > 100 µM | HOP-62 34.7 µM | NCI-H23 > 100 µM | UACC-257 > 100 µM | RPMI-8226 > 100 µM | CCRF-CEM 32.3 µM | SK-MEL-2 > 100 µM | MDA-N > 100 µM | UO-31 > 100 µM | Malme-3M > 100 µM | 786-0 36 µM | MDA-MB-435 > 100 µM

O=C(c1ccccc1)c1c(CNCc2ccccc2)n(C(=O)c2ccccc2)c2ccccc12
inactive: U-251 20.8 µM | SW-620 71.6 µM | KM12 18.9 µM | NCI-H522 4.52 µM | HOP-62 80.5 µM | NCI-H23 17.1 µM | UACC-257 29.6 µM | RPMI-8226 11.6 µM | CCRF-CEM 23.2 µM | SK-MEL-2 63.4 µM | UO-31 8.95 µM | Malme-3M 77.1 µM | 786-0 > 100 µM | SF-539 69.3 µM
